From US20030152562A1, “Vitro micro-organs, and uses related thereto” (Yissum Research Development Company of the Hebrew …, priority 2001, published 2003)
Entries after “also recorded” stand apart in the source; their conditions may differ.

Experiments:
Type in all cases: cell-based
epidermal cells = assay: Inhibition of proliferation of epidermal cells
New born mouse skin = assay: Hair shaft growth in new born mouse skin micro-organ cultures; details: skin from 30 hr-old mouse, 3 days in culture, 1 ng/ml EGF
Experimental: New born mouse skin was obtained after surgery, cleaned of underlying fat tissue and cut into 0.4×5 cm flaps, which were then transversely sectioned, using a tissue chopper or other suitable cutting devise into 300 μm sections. The micro-organs were placed in microplates in DMEM in the absence of serum under 5% CO2 at 37° C. under constant shaking for periods of 1 to 14 days. Certain of the micro-organ explants were contacted with a growth factor, e.g., FGF, which was added to the culture media. The medium was changed every 2 days.
New born “hairless” skin can be induced to produce hair shafts when grown in MC cultures.

guinea-pig skin cultures = assay: BrdU labeling assay of cell proliferation (DNA synthesis) in skin micro-organ cultures; details: FIG. 12
Experimental: Fresh skin was obtained after surgery, cleaned from underlying fat tissue and cut into 0.4×5 cm flaps, which are then transversely sectioned, using a tissue chopper or other suitable cutting means into 300 μm sections under sterile conditions so that the final tissue segments had dimensions of 4 mm in width and 0.3 mm in thickness (see FIG. 1). These micrograns were placed in a 24-well microplate in 400 μl of DMEM in the absence of serum under 5% CO2 at 37° C., under constant shaking at 12 rpm for periods of one to eight days. Twenty micro-explants were grown per well.
Micro-organ cultures were prepared according to Example I and proliferation of the cells was measured by analyzing the amount of DNA synthesis as follows. […]
The cultures were prepared and maintained in defined medium in similar growth conditions as described in Example I. Control samples were analyzed by immunocytochemistry to determine that the micro-organ culture was maintained in a manner that was similar to that occurring in vivo.
Duplicated samples of skin micro-cultures were treated with TGF-β at 2.5 ng/ml. A quantitative analysis of the number of BrdU labeled cells/explant was performed according to Example II.

For Activin, the “effect on proliferation of epidermal cells” value (epidermal cells) was “inhibit proliferation of epidermal cells”.

For “EGF: epidermal growth factor added to culture medium (NSDSECPLSHDGYCLHDGVCMYIEALDKYACNCVVGYIGERCQYRDLKWWELR; UniProt P01133 971-1023, looked up)”, the “hair shaft development in explants” value (New born mouse skin) was “development of hair shafts in the explants”.

With TGF-β the “effect on cell proliferation / mitogenesis in skin micro-organ cultures” value (guinea-pig skin cultures; 2.5 ng/ml, guinea-pig skin cultures) was “inhibitor of cell proliferation; also recorded: inhibition of mitogenesis” and the “inhibition of DNA synthesis (number of BrdU labeled cells/explant) compared with controls” value (guinea-pig skin cultures; TGF-β at 2.5 ng/ml, skin micro-cultures in defined medium) was “Greater than 90%”.
